Data set [1] can be described thus: Toxicity (body weight ratio, mortality) in HT29 xenograft nude mice. Type of data set: in vivo. The note with it: day 28 before sacrifice; 25 animals per group.
Procedure: Tumor measurements and body weights were recorded twice a week. […] For each experiment, the same observer made all measurements to minimize variations. Toxicity was evaluated in terms of body weight ratio (Wn/Wo) and mortality; Wn is the body weight measured n days after the initial administration, while Wo is the body weight at the start of administration. […] Two consecutive experiments gave similar data, and results represent the average of all data for a total of 25 animals per group. The means of each of the four groups were compared using the one-way analysis of variance. The Barlett's test was used for homogeneity of variances and the Tukey-Kramer multiple comparison test for inter-group comparison. Data analysis was performed using an IBM PC. Statistical analysis and graphs were performed using Instat and Prism software (GraphPad, San Diego, Calif.).
Body weight was evaluated in terms of the ratio of body weight measured n days after treatment (Wn) as compared to the body weight at the start of treatment (Wo). All animals (25 per group) were weighed twice a week.
Data set [2] has as its system human HT29 colorectal tumor cell xenografts. The data set can be described thus: Growth inhibition study in nude mice transplanted with human HT29 colorectal tumor cell xenografts. Type of data set: in vivo. The method, then: Growth inhibition studies were performed using nude mice transplanted with human HT29 colorectal tumor cell xenografts and 1) not treated (control group), or treated 2) with oral UFT (20 mg/kg/day) and calcium folinate (4 mg/kg/day) for 28 days; 3) intraperitonealy with oxaliplatin (10 mg/kg at day 1), or 4) with a combination of oxaliplatin with UFT and calcium folinate. Tumor measurements were performed twice a week, and animals were sacrificed at day 28. The tumors were excised and weighed. Two separate experiments were performed, for a total number of 25 animals in each group.
Human colorectal cancer HT29 cells, obtained from Dr. J. Fogh (Sloan Kettering Institute for Cancer Research, N.Y.), were cultured in DMEM (Dulbeccos modified Eagle's medium, Eurobio, Paris, France), supplemented with 10% heat-decomplemented fetal bovine serum (Boehringer, Manheim, Germany), 100 U/ml penicillin, 100 μg/ml streptomycin and […] glutamine. Cells were grown at 37° C. in a humidified atmosphere containing 5% CO2. The medium was renewed every 2 days, and the cells were passaged twice a week by trypsin/EDTA to maintain the cells in exponential growth.
Female BALB/c nude (nu+/nu+) aged 6 weeks were maintained in pathogen free state. Human HT29 colorectal xenograft (1×10^6 cells) was transplanted sub-cutaneously into the hind limb of each animal. Treatment was initiated 14 days later when the tumor became easily palpable and measurable (mean size of tumor surface=33 mm^2).
Oxaliplatin was administered intraperitoneally at a dose of 10 mg/kg day 1. […]
Two axes (mm) of tumor (the longest axis and the axis perpendicular to the longest axis) were measured with a caliper. Tumor measurements and body weights were recorded twice a week. […] Toxicity was evaluated in terms of body weight ratio (Wn/Wo) and mortality; Wn is the body weight measured n days after the initial administration, while Wo is the body weight at the start of administration. […] Results are expressed as mean weight (grams)±standard deviation. […]

Several values for one entry are separate records, joined by “and”; a condition that tells them apart may be missing. Equal values may be shown once.

For the molecule `O=C1[O][Pt]2([NH][C@@H]3CCCC[C@H]3[NH]2)[O]C1=O` [oxaliplatin, [(1R, 2R)-1,2-cyclohexanediamine-N,N′][oxalato(2-)-O, O′]platinum], the “Body Weight Ratio (Wn/Wo)” value in data set [1] amounted to 1.05 ± 0.09. In addition, the “Decrease of tumor size (tumor growth inhibition) as compared to control” value in data set [2] (day 28, FIG. 1) is 24%. Further, the “Tumor weight decrease as compared to control” value in data set [2] (day 28, same doses) was 29.9% and 30%. Besides, the Mean tumor weight in data set [2] (tumors excised 28 days after treatment initiation, 25 animals per group, UFT 20 mg/kg/day + calcium folinate 4 mg/kg/day oral day 1-28, oxaliplatin 10 mg/kg i.p. day 1) was 2.03 ± 0.14 g.
